# How the values were obtained:
# Format in all cases: biochemical
# [1] = target: T1, E coli. poly(A) polymerase (Escherichia coli, UniProt P0ABF1); assay: Poly(A) polymerase-based extension of model mRNA mixture, Fragment Analyzer; conditions: mixture of CLuc-53AGGCCCCU, EGFP-40A, UnaG-120A; 15-minute extension
# Source text: In this example, three model mRNAs CLuc-53AGGCCCCU, EGFP-40A, and UnaG-120A as shown in Table 1 are mixed in an equal amount to create a model mRNA mixture. The same poly(A) polymerase-based extension as described in Example 5 was used to add 2-Amino-6-Cl-purine-rTP to the model RNA mixture. Fragment Analyzer (Agilent®) was used to measure the lengths of the model RNA mixture before and after the reaction.
# [2] = target: T1, E coli. poly(A) polymerase; assay: Poly(A) polymerase-based reaction with different nucleotide analogues and their combination on UnaG-120A mRNA, Fragment Analyzer; conditions: for addition to UnaG-120A mRNA by poly(A) polymerase: 1 mM total analogue, 37° C., 15 minutes; for appearance of the RNA product: UnaG-120A mRNA, Fragment Analyzer
# Description: In this example, the ability of poly(A) polymerase-based reaction to add different nucleotide analogues to the 3′ termini of UnaG-120A mRNA as the oligo nucleotide analogue sequence has been tested. […] The 10 μL of the reaction mixture was incubated at 37° C. for 15 minutes. The reacted RNA products were visualized using Fragment Analyzer.
# [3] = target: T1, E coli. poly(A) polymerase; assay: One-pot 3′ extension of model short RNA, Urea-PAGE; conditions: 15 minutes analogue, then ATP added, 37° C.
# Description: In this example, the reaction cocktail for the one-pot 3′ extension of model short RNA (as shown in Table 1) was prepared as described in Table 4. The reaction cocktail (without ATP) was incubated at 37° C. for 15 minutes to allow for 2-Amino-6-Cl-purine-rTP addition. After 15 minutes of reaction, 1 μL of 10 mM ATP (New England BioLabs®) was directly added into the reaction mixture, and further incubated for different durations of time at 37° C.
# [4] = target: T1, E coli. poly(A) polymerase; assay: Poly(A) polymerase-based extension of model short RNA (A-terminated), Urea-PAGE; conditions: for addition of nucleotide analogue sequence to the 3′ termini of the model short RNA: 1 mM analogue, 15 minutes, model short RNA (A-terminated)
# Description: The reaction cocktail was used in the subsequent studies as described in examples below.
# ATP was used as the positive control. The reaction cocktail for the poly(A) polymerase-based extension for each of the nucleoside analogue triphosphates and ATP was prepared as described in Table 2. The 10 μL of the reaction cocktail was incubated at 37° C. for 15 minutes to allow the extension of the adenine nucleotides (A) or nucleotide analogues. The reacted RNA products were visualized using Urea-PAGE.
# The experiment was further repeated for 2-Amino-6-Cl-purine-rTP addition by poly(A) polymerase-based extension with different incubation times, i.e. 5, 10, 15, 20 minutes respectively. Addition of ATP by poly(A) polymerase-based extension with 20-minute incubation time was used as the positive control. The reacted RNA products were visualized using Urea-PAGE.
# [5] = target: T1, E coli. poly(A) polymerase; assay: Poly(A) polymerase-based extension of C, G and U-terminated model short RNAs, Urea-PAGE; conditions: for addition of oligo nucleotide analogue to model short RNAs with different 3′ terminal bases: 1 mM, 37° C., 15 minutes
# Description: In this example, 2-Amino-ATP, 2-Amino-6-Cl-purine-rTP and 2′-F-dATP have been tested for poly(A) polymerase-based extension to add the respective oligo nucleotide analogue sequences to the 3′ termini of model short RNAs with different terminal bases other than A, i.e. C, G and U-terminated model short RNAs as shown in Table 1. ATP was used as the positive control. The reaction cocktail for the poly(A) polymerase-based extension for each model short RNA was prepared as described in Table 2. The 10 μL of the reaction mixture was incubated at 37° C. for 15 minutes to allow the addition of 2-Amino-6-Cl-purine-rTP to the model short RNAs. The reacted RNA products were visualized using Urea-PAGE.
# T1 sequence (P0ABF1 11-465): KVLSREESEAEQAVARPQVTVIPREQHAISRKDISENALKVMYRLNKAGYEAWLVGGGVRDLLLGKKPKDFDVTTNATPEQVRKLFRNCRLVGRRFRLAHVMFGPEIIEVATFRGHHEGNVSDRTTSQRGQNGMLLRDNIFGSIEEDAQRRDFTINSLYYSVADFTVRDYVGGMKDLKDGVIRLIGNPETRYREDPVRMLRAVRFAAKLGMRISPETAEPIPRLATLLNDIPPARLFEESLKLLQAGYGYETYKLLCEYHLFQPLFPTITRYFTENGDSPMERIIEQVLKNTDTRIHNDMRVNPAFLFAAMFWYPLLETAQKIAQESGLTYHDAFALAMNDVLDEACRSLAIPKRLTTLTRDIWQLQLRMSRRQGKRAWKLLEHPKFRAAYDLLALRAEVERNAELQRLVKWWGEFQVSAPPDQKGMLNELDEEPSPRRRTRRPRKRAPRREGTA
compound,measurement,setting,value
Nc1nc(Cl)c2ncn(C3OC(COP(=O)(O)OP(=O)(O)OP(=O)(O)O)C(O)C3O)c2n1 (stereo not shown) [2-Amino-6-Cl-purine-rTP],addition of oligo sequence to model mRNAs (upward band shift),[1],added to all model mRNAs
same,addition to UnaG-120A mRNA by poly(A) polymerase,[2],can be added
same,appearance of the RNA product,[2],upshifted clear main band
same,sequential addition of oligo analogue sequence and oligo(A) sequence,[3],successfully added
same,addition of nucleotide analogue sequence to the 3′ termini of the model short RNA,[4]; 37° C.,successfully added
same,time within which the reaction was complete,"[4]; 37° C., 1 mM",10 to 20 min
same,nucleotides added to the 3′ terminus of model short RNA,"[4]; 5 minutes incubation, 37° C., 1 mM",over 60 nts
same,length of tailed model short RNA product,"[4]; 5 minutes incubation, original RNA 136 nt",> 196 nt
same,comparison among nucleotide analogues,[5],produced the best results
same,addition of oligo nucleotide analogue to model short RNAs with different 3′ terminal bases,[5],successfully added
Nc1nc(N)c2ncn(C3OC(COP(=O)(O)OP(=O)(O)OP(=O)(O)O)C(O)C3O)c2n1 (stereo not shown) [2-Amino-ATP],addition to UnaG-120A mRNA by poly(A) polymerase,[2],can be added
same,appearance of the RNA product,[2],distribution of RNA sizes shown as a smear
same,addition of nucleotide analogue sequence to the 3′ termini of the model short RNA,[4]; 37° C.,successfully added
same,addition of oligo nucleotide analogue to model short RNAs with different 3′ terminal bases,[5],successfully added
Nc1ncnc2c1ncn2C1OC(COP(=O)(O)OP(=O)(O)OP(=O)(O)O)C(O)C1F (stereo not shown) [2′-F-dATP],addition of nucleotide analogue sequence to the 3′ termini of the model short RNA,[4]; 37° C.,successfully added
same,addition of oligo nucleotide analogue to model short RNAs with different 3′ terminal bases,[5],successfully added

# From patent US20240309447A1, “METHODS AND KITS FOR PREPARING A SAMPLE […] OR MORE RNA MOLECULES FOR SEQUENCING” (The Hong Kong University of Science and Technology, priority 2023, published 2024)
